EPA's ToxValDB 9.5
Several values for one entry are separate records, joined by “and”; a condition that tells them apart may be missing. Equal entries are not always repeated.

What was measured:
[1] = tested on: Rattus norvegicus; settings: for LC50 / LD50: acute
[2] = tested on: Rattus norvegicus; test: LC0; higher = less toxic; settings: acute; inhalation
[3] = tested on: Rattus norvegicus; settings: oral, diet
[4] = tested on: Mus musculus; settings: chronic; duration: 2 years; inhalation; intermittent; Nasal mucosa: Hyperplasia + Nasal mucosa: Hypertrophy
[5] = tested on: Mus musculus; settings: oral
[6] = tested on: Mus musculus; settings: subchronic; duration: 90 days; oral; gavage; M/F; Crl:CD-1(ICR)BR-VAF+; Whole Body Effects
[7] = tested on: Mus musculus; settings: subchronic; oral; gavage; M/F; clinical signs (lethargy, prostration, and ataxia and hematological changes
[8] = tested on: Rattus norvegicus; test: LD0; higher = less toxic; settings: acute, oral, gavage
[9] = tested on: Oryctolagus sp.; test: LD0; higher = less toxic; settings: acute
[10] = tested on: Oryctolagus sp.; settings: for LD50: acute, dermal; for NOAEL: duration: 13 days, oral
[11] = tested on: Rattus norvegicus; settings: subchronic, oral, gavage
[12] = tested on: Oryctolagus sp.
[13] = tested on: Oryctolagus sp.; remark: listed apart in the source
[14] = tested on: Mus musculus; settings: repeat dose other; oral
[15] = tested on: Coturnix japonica; settings: repeat dose other; oral
[16] = tested on: Rattus norvegicus; settings: chronic, oral, diet, M, Wistar, immunological
[17] = tested on: Rattus norvegicus; settings: uterotrophic, Active
[18] = tested on: Mus musculus; settings: uterotrophic, injection, Active
[19] = tested on: Rattus norvegicus; settings: chronic; duration: 27 weeks; oral; diet; M/F; liver lesions
[20] = tested on: Rattus norvegicus; settings: repeat dose other; oral
[21] = tested on: Pelecanus occidentalis; settings: oral
[22] = tested on: Mus musculus; settings: developmental; duration: 14 days; oral; gavage; M; NMRI; developmental
[23] = reproduction developmental, oral, diet, Sprague-Dawley, generation: F0
[24] = short-term, duration: 4 weeks, oral, diet, Sprague-Dawley
[25] = subchronic, inhalation, M/F, functional and histological peripheral neurotoxicity
[26] = developmental, oral, F, maternal (reduced weight gain) and fetal toxicity

FC(F)(F)C(F)(Cl)Cl [1,1-Dichlorotetrafluoroethane]
NOAEL ([1]; short-term, duration: 2 weeks, inhalation, M, Crl:CDABR): 289000 mg/m3 | LC0 [2]: > 1.07e+06 mg/m3

ClC=CCCl [1,3-Dichloropropene]
NOEL ([3]; subchronic, duration: 90 days, Organs: Increased weight): 3 mg/kg-day | NOAEL [4]: 22.7 mg/m3

Cc1ccc(O)c(C)c1 [2,4-Dimethylphenol]
LC50 ([1]; oral): 2300 mg/kg | LC50 ([5]; acute): 809 mg/kg | NOAEL ([5]; subchronic, duration: 90 days, gavage, F): 50 mg/kg-day | NOAEL [6]: 50 mg/kg-day | LOAEL [7]: 250 mg/kg-day | NOAEL [7]: 50 mg/kg-day

CCCCC(CC)COP(=O)(O)O (stereo not drawn) [2-Ethylhexyl dihydrogen phosphate]
LD0 [8]: 3640 mg/kg | LD0 ([9]; dermal, New Zealand): 11300 mg/kg | LD50 ([1]; oral, gavage, Sprague-Dawley): 4100 mg/kg and 2710 mg/kg | LD50 ([10]; New Zealand): > 4640 mg/kg

S=c1[nH]c2ccccc2s1 [2-Mercaptobenzothiazole]
NOEL ([11]; duration: 13 weeks, M/F, Fischer 344, Absolute Organ Weight: Liver increase + Relative Organ Weight: Liver increase): < 188 mg/kg-day | NOEL ([11]; M, Sprague-Dawley, Clinical Observation: Locomotor activity with ptosis decrease, Salivation + Body Weight Changes: Suppression of body weight gain(tendency…): < 40 mg/kg-day | LD0 ([9]; oral): ≥ 7500 mg/kg and ≤ 8750 mg/kg | LD0 ([9]; oral, New Zealand): ≥ 7500 mg/kg and ≤ 8750 mg/kg | LC50 ([1]; inhalation): > 1.27 µg/mL | LD50 ([1]; oral, Sprague-Dawley): 2830 mg/kg and 3800 mg/kg | NOAEL ([1]; developmental, duration: 10 days, oral, gavage, Sprague-Dawley): 1800 mg/kg-day and 2200 mg/kg-day | NOAEL ([1]; reproduction developmental, duration: 10 days, oral, gavage, F, Sprague-Dawley): 300 mg/kg-day | NOAEL ([1]; reproduction developmental, oral, diet, Crl:CD COBS BR): 2500 ppm | NOAEL [1, 23]: < 5000 ppm | NOAEL ([1]; reproduction developmental, oral, diet, Sprague-Dawley, generation: F1): < 5000 ppm | LOAEL [1, 24]: 1070 mg/kg-day | NOAEL [1, 24]: 714 mg/kg-day | NOAEL ([1]; subchronic, duration: 13 weeks, oral, gavage, Fischer 344): 375 mg/kg-day | LD50 ([5]; acute): 2000 mg/kg | LD50 [10]: > 7940 mg/kg | LD50 ([10]; New Zealand): > 7940 mg/kg | NOAEL ([10]; developmental, gavage, New Zealand): 300 mg/kg-day | NOAEL ([10]; reproduction developmental, gavage, F, New Zealand): 300 mg/kg-day and < 150 mg/kg-day

S=C(SN1CCOCC1)N1CCOCC1 [4-((Morpholinothio)thioxomethyl)morpholine]
LD0 [8]: 1000 mg/kg | LD0 ([8]; Sprague-Dawley): 2700 mg/kg | LD50 ([1]; oral, gavage): 5110 mg/kg | LD50 ([1]; oral, gavage, Sprague-Dawley): 5000 mg/kg and 5200 mg/kg | NOAEL ([1]; reproduction developmental, duration: 12 weeks, oral, diet, Sprague-Dawley, generation: F0): 200 ppm | NOAEL ([1]; reproduction developmental, duration: 12 weeks, oral, diet, Sprague-Dawley, generation: F1): 600 ppm | NOAEL [1, 23]: 600 ppm | LD50 ([5]; acute, gavage, CD1): 7000 mg/kg and 9000 mg/kg and 11000 mg/kg | LD50 ([10]; semiocclusive): > 10000 mg/kg | LC0 [2]: 164 mg/L

C=CCCl [Allyl chloride]
NOAEL ([12]; chronic, duration: 5 months, inhalation, intermittent, Nervous system: Neurotoxicity): 17 mg/m3 | LOAEL [13, 25]: 206 mg/m3 | NOAEL [13, 25]: 17 mg/m3

CCC[CH2][Sn]([CH2]CCC)([CH2]CCC)[O][Sn]([CH2]CCC)([CH2]CCC)[CH2]CCC [Bis(tributyltin)oxide]
LOAEL [14]: 35 mg/kg-day | NOAEL [14]: 23.4 mg/kg-day | LOAEL [15]: 16.9 mg/kg-day | NOAEL [15]: 6.8 mg/kg-day | NOAEL ([16]; duration: 6 months): 0.025 mg/kg-day | NOAEL ([16]; duration: 18 months): 0.025 mg/kg-day

Clc1ccc(C(c2ccc(Cl)cc2)C(Cl)(Cl)Cl)cc1 [DDT]
NOEL ([3]; chronic, duration: 27 weeks, Liver: Lesions): 0.05 mg/kg-day | LEL ([17]; duration: 1 days, injection, intraperitoneal): 12.5 mg | LEL ([17]; duration: 3 days, injection, intraperitoneal): 4 mg | LEL ([17]; duration: 3 days, oral): 100 mg/kg-day | LEL ([18]; duration: 3 days, intraperitoneal): 100 mg/kg-day | LEL ([18]; duration: 3 days, subcutaneous): 1000 mg/kg-day | LEL ([18]; duration: 5 days, subcutaneous): 10 mg/kg-day | LOAEL [19]: 0.39 mg/kg-day | NOEL [19]: 0.05 mg/kg-day | LOAEL [20]: 4 mg/kg-day | NOAEL [20]: 0.8 mg/kg-day | LOAEL [21]: 0.028 mg/kg-day | NOAEL [21]: 0.0028 mg/kg-day | LOAEL [22]: 0.5 mg/kg-day

COc1c(Cl)ccc(Cl)c1C(=O)O [Dicamba]
NOAEL ([12]; developmental, duration: 12 days, oral, gavage, Dam: Decreased weight gain + Fetus: Decreased weight + Fetus: Increased mortality + Fetus: Increased post-implantation losses): 3 mg/kg-day | NOAEL ([1]; developmental, duration: 14 days, oral, gavage, Crj:CD): ≤ 400 mg/kg-day | NOAEL ([1]; reproduction developmental, duration: 14 days, oral, gavage, F, Crj:CD): ≤ 160 mg/kg-day | NOAEL ([10]; reproduction developmental, F, New Zealand): ≤ 30 mg/kg-day | NOAEL ([10]; reproduction developmental, New Zealand, generation: F1): ≤ 300 mg/kg-day | LEL [13, 26]: 10 mg/kg-day | NOEL [13, 26]: 3 mg/kg-day
